From patent publication US6696490B2, “Slow release insect repellent compounds and process for delivering active” (priority 2002, dated 2004) come the findings set out here.

“Also recorded” adds a separate entry of the source.

Assay type in all cases: in vivo
The nature of data set [1]: Ethanol extraction of PMD- and PMDL-treated skin followed by GC-MS. The protocol:
PMDL standard and ethanol skin extracts were also analyzed by GC-MS. The injection mode for PMDL was a split mode at 10:1 split ratio. The rest of conditions were the same as the ones used for PMD analysis by GC-MS as are listed above. The SPME apparently is a tube (e.g., dome or other like structure) strapped to measured area (e.g., arm) with an opening (e.g., at top) to insert analytical extractor which is essentially a needle used to trap/absorb volatiles released in the apparatus.
(§1) In this set, individual stock solutions of PMD and PMDL were prepared by placing 0.0978 g PMD and 0.1095 g in 5 mL of ethanol, respectively. Then five areas of skin, about 7 cm^2 on each arm, were selected. One of the five spots on each arm remained untreated as control and marked as a blank. The remaining four areas on the right arm were dosed with 32 μL PMDL and the remaining four areas on the left arm were dosed with 36 μL of PMD. Untreated area 1, and the treated area on each arm marked as 2, 3, 4, and 5, were then extracted with 4 mL of ethanol for a period of 3 min at 0, 15, 60 and 150 min intervals, respectively. Collected extracts were then analyzed by GC-MS for their PMD and PMDL and by APCI-MS for their linoleic acid contents (FIGS. 4, 5, 6 and 7). FIG. 4 is plot of PMD, FIG. 5 is plot of PMDL; and FIGS. 6 and 7 are plots for linoleic acid.

The nature of data set [2]: SPME/GC-MS of PMD generated by hydrolysis of PMDL placed on the skin. The conditions noted are these: 100 μg/cm^2 PMDL on skin, sampling 0 to 300 min, FIG. 3a. As to the method: Solid Phase Microextraction (SPME) is a sample preparation technique which has been used for trapping volatiles. In the subject invention, SPME was used to extract and concentrate PMD vapour (by-product of PMDL hydrolysis) in the headspace. The extracted analytes were then analyzed by Gas Chromatography-Mass Spectroscopy (GC-MS). The SPME fiber used here was from Supelco, a 2.0 cm long, StableFlex fiber (23-gauge needle), 50/30 divinylenzene/carboxene on polydimethylsiloxane. Agilent 6890 Gas Chromatography equipped with Agilent 5973 Mass Selective Detector and Chemstation, G1701CA software were used for analyzing and identifying PMD. GC was equipped with a 0.25 […] HP-5 capillary column with 0.25 micrometer of cross-linked 5% Phenyl Methyl Siloxane. The GC oven was programmed to increase its temperature at 2 min from the initial temperature of 60° C. to 300° C. at 6° C./min. The injector temperature and the head pressure were 250° C. and 8.6 psi, respectively. The flow rate of the carrier gas (helium) was 1 mL/min The total flow rate was set at 25 mL/min Purge was off for 0.5 min, i.e. from a split mode into a splitless mode after the program was started. Agilent 5973 Mass Selective Detector with an ion source by an electron impact (El) data system was used for mass spectrometric identification. […]

Data set [3] in a line: Ethanol extraction of PMDL-treated skin followed by APCI-MS for linoleic acid. To be noted: FIGS. 6 and 7. The protocol:
as §1, with “Another set of experiments was conducted to confirm the results obtained earlier from SPME-GC for PMD & PMDL and also to confirm hydrolysis of PMDL into linoleic acid and PMD on the skin by ethanol extraction of the skin followed by GC-MS and APCI-MS analysis of the collected extracts. In” for “In”, “FIG. 4 is plot of PMD, FIG. 5 is plot of PMDL; and FIGS. 6 and 7 are plots for linoleic acid.” left out
APCI-MS was used to analyze linoleic acid in ethanol skin extracts. […] Samples from the last set of experiments, as described in the […] were analyzed for their linoleic acid level using this technique. Each extracted sample was analyzed in triplicate.

Data set [4] is described as follows: SPME/GC-MS of headspace above forearm skin dosed with PMD (evaporation of PMD). The protocol:
Solid Phase Microextraction (SPME) is a sample preparation technique which has been used for trapping volatiles. In the subject invention, SPME was used to extract and concentrate PMD vapour (by-product of PMDL hydrolysis) in the headspace. The extracted analytes were then analyzed by Gas Chromatography-Mass Spectroscopy (GC-MS). The SPME fiber used here was from Supelco, a 2.0 cm long, StableFlex fiber (23-gauge needle), 50/30 divinylenzene/carboxene on polydimethylsiloxane. Agilent 6890 Gas Chromatography equipped with Agilent 5973 Mass Selective Detector and Chemstation, G1701CA software were used for analyzing and identifying PMD. GC was equipped with a 0.25 […] HP-5 capillary column with 0.25 micrometer of cross-linked 5% Phenyl Methyl Siloxane. The GC oven was programmed to increase its temperature at 2 min from the initial temperature of 60° C. to 300° C. at 6° C./min. The injector temperature and the head pressure were 250° C. and 8.6 psi, respectively. The flow rate of the carrier gas (helium) was 1 mL/min The total flow rate was set at 25 mL/min Purge was off for 0.5 min, i.e. from a split mode into a splitless mode after the program was started. Agilent 5973 Mass Selective Detector with an ion source by an electron impact (El) data system was used for mass spectrometric identification. The detector was used in a scan mode to scan mass ranging from a Low Mass of 40 to a High Mass of 550. Solvent delay time was 3.5 min. Total sample run time was 60 min.
To determine the extent of evaporation of PMD from the skin matrix over a period of time (correlating to amount of PMD produced by hydrolysis from PMD-L), a number of experiments were carried out. In these experiments, SPME fiber was inserted into a headspace of a glass semi-ball chamber fastened on forearm by an elastic band. […]
For a first set of SPME experiments, a PMD solution at concentration of 21800 μg/mL was prepared by placing 0.218 g of PMD crystals in 10 mL of absolute ethanol. […] The SPME glass chamber and fibers were then removed and the SPME fiber were analyzed by GC-MS for measurement of PMD. […]

On to 3,8-p-Menthanedilinoleate [PMDL], for which the “levels of PMDL on PMDL treated skin (GC-MS peak area of ethanol extracts)” value in data set [1] (leave on time 0 to 150 min, FIG. 5) was “a trend of decrease in the levels of PMDL on the skin”. The “level of PMD on PMDL treated skin” value in data set [1] (over a 150 minute period) is “simultaneous increase in the level of PMD on the skin”. In addition, the “PMD signal generated from hydrolysis of PMDL on the skin over time (SPME/GC-MS)” value in data set [2] is “presence of high levels of PMD released from the skin at the early stage and then through a decrease in the PMD levels over period of time”; in data set [2] (listed as PMD-L) it was “initial sharp increase in the concentration of PMD”. Moreover, the “linoleic acid level on PMDL treated skin over time” value in data set [3] (APCI-MS of ethanol extracts at 0, 15, 60 and 150 min) is “an increase in linoleic acid level over the 15 to 60 min period followed by a decrease at 150 min; also recorded: increase in linoleic on treated skin in first hour followed by a decrease”. Besides, the “level of linoleic acid in PMDL treated skin compared to untreated skin (blank)” value in data set [3] (APCI-MS of ethanol extracts) is “substantially higher in the treated skin samples compared to the untreated skin”.
Consider `CC1CCC(C(C)(C)O)C(O)C1` (centres unmarked) [PMD, 3,8-p-menthanediol, reference compound], for which the “time after which active is no longer present” value in data set [1] (PMD delivered in non-ester form, FIG. 4) turned out to be 2.5 h. For the same compound, the “PMD levels on PMD treated skin (GC-MS peak area of ethanol extracts)” value in data set [1] (leave on time 0 to 150 minutes, FIG. 4) is on record as “decreased as the leave on time increased from 0 to 150 minutes; also recorded: decrease of PMD”. The “levels of PMD on the skin over leave on time (SPME/GC-MS)” value in data set [4] (40 μg/cm^2 PMD applied neat, 0 to 300 minutes, FIG. 3b) is “decreased as the leave on time proceeded from 0 to 300 minutes”. Moreover, the “time over which PMD signal was followed and detected” value in data set [4] (40 μg/cm^2 PMD on forearm skin, SPME extraction time 30 min, FIG. 3b) is recorded as “up to 5 hours”. For the same compound, the “time after which PMD signal could not be detected” value in data set [4] (40 μg/cm^2 PMD on forearm skin, SPME sampling time 5 min) was 2 h.
